{
  "source": "ChEMBL document CHEMBL4828705",
  "about": "“Inhibition studies on carbonic anhydrase isoforms I, II, IV and IX with N-arylsubstituted secondary sulfonamides featuring a bicyclic tetrahydroindazole scaffold” (Eur J Med Chem, 2021)",
  "key": {"Carbonic anhydrase 2": {"biological_target": "Carbonic anhydrase 2 (Homo sapiens, UniProt P00918)", "assay": "Inhibition of recombinant human CA2 preincubated for 15 mins by phenol red dye-based stopped-flow CO2 hydration assay"}, "Carbonic anhydrase 1": {"biological_target": "Carbonic anhydrase 1 (Homo sapiens, UniProt P00915)", "sequence (P00915 whole entry)": "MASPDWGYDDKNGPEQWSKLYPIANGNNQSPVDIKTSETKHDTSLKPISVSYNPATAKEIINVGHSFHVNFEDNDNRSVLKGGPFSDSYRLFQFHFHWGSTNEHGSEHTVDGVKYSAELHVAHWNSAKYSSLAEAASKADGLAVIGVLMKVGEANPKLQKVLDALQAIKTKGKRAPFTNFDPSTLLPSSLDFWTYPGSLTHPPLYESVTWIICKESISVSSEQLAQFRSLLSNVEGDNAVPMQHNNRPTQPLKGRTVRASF", "assay": "Inhibition of recombinant human CA1 preincubated for 15 mins by phenol red dye-based stopped-flow CO2 hydration assay"}, "Carbonic anhydrase 9": {"biological_target": "Carbonic anhydrase 9 (Homo sapiens, UniProt Q16790)", "assay": "Inhibition of recombinant human CA9 preincubated for 15 mins by phenol red dye-based stopped-flow CO2 hydration assay"}, "Carbonic anhydrase 4": {"biological_target": "Carbonic anhydrase 4 (Homo sapiens, UniProt P22748)", "sequence (P22748 whole entry)": "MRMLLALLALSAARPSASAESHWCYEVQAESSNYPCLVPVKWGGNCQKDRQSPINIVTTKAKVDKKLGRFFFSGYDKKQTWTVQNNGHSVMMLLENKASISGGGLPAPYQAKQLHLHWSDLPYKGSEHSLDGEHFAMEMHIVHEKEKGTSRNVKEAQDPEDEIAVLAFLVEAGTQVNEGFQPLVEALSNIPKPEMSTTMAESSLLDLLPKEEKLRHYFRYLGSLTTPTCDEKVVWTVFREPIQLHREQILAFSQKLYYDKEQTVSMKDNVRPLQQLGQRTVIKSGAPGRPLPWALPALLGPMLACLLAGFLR", "assay": "Inhibition of recombinant human CA4 preincubated for 15 mins by phenol red dye-based stopped-flow CO2 hydration assay"}},
  "data": [
    {"smiles": "Cc1cccc(NS(=O)(=O)c2ccc(-n3ncc4c3CC(C)(C)CC4=O)cc2)c1", "values": [
      {"measurement": "Ki", "setting": "Carbonic anhydrase 2", "result": "> 100", "unit": "µM"},
      {"measurement": "Ki", "setting": "Carbonic anhydrase 1", "result": "> 100", "unit": "µM"},
      {"measurement": "Ki", "setting": "Carbonic anhydrase 9", "result": "> 100", "unit": "µM"}
    ]},
    {"smiles": "COc1ccc(NS(=O)(=O)c2ccc(-n3ncc4c3CC(c3ccccc3)CC4=O)cc2)cc1", "note": "(centres undefined)", "values": [
      {"measurement": "Ki", "setting": "Carbonic anhydrase 9", "result": 40, "unit": "µM"}
    ]},
    {"smiles": "O=C1CC(c2ccccc2)Cc2c1cnn2-c1ccc(S(=O)(=O)Nc2cccc([N+](=O)[O-])c2)cc1", "note": "(centres undefined)", "values": [
      {"measurement": "Ki", "setting": "Carbonic anhydrase 4", "result": "> 100", "unit": "µM"},
      {"measurement": "Ki", "setting": "Carbonic anhydrase 9", "result": 84.7, "unit": "µM"}
    ]},
    {"smiles": "Cc1ccc(NS(=O)(=O)c2ccc(-n3ncc4c3CC(C)(C)CC4=O)cc2)cc1", "values": [
      {"measurement": "Ki", "setting": "Carbonic anhydrase 1", "result": "> 100", "unit": "µM"},
      {"measurement": "Ki", "setting": "Carbonic anhydrase 9", "result": "> 100", "unit": "µM"}
    ]},
    {"smiles": "Cc1cccc(NS(=O)(=O)c2ccc(-n3ncc4c3CCCC4=O)cc2)c1", "values": [
      {"measurement": "Ki", "setting": "Carbonic anhydrase 9", "result": 33, "unit": "µM"}
    ]},
    {"smiles": "CC1(C)CC(=O)c2cnn(-c3ccc(S(=O)(=O)Nc4cccc([N+](=O)[O-])c4)cc3)c2C1", "values": [
      {"measurement": "Ki", "setting": "Carbonic anhydrase 1", "result": "> 100", "unit": "µM"},
      {"measurement": "Ki", "setting": "Carbonic anhydrase 9", "result": "> 100", "unit": "µM"}
    ]},
    {"smiles": "CC1(C)CC(=O)c2cnn(-c3ccc(S(=O)(=O)Nc4ccccc4)cc3)c2C1", "values": [
      {"measurement": "Ki", "setting": "Carbonic anhydrase 9", "result": "> 100", "unit": "µM"}
    ]},
    {"smiles": "CC1(C)CC(=O)c2cnn(-c3ccc(S(=O)(=O)Nc4ccc(Cl)cc4)cc3)c2C1", "values": [
      {"measurement": "Ki", "setting": "Carbonic anhydrase 9", "result": "> 100", "unit": "µM"}
    ]},
    {"smiles": "O=C1CCCc2c1cnn2-c1ccc(S(=O)(=O)Nc2ccc(Cl)cc2)cc1", "values": [
      {"measurement": "Ki", "setting": "Carbonic anhydrase 9", "result": "> 100", "unit": "µM"}
    ]},
    {"smiles": "O=C1CC(c2ccccc2)Cc2c1cnn2-c1ccc(S(=O)(=O)Nc2ccccc2)cc1", "note": "(centres undefined)", "values": [
      {"measurement": "Ki", "setting": "Carbonic anhydrase 9", "result": 95.4, "unit": "µM"}
    ]},
    {"smiles": "O=C1CC(c2ccccc2)Cc2c1cnn2-c1ccc(S(=O)(=O)Nc2ccc([N+](=O)[O-])cc2)cc1", "note": "(centres undefined)", "values": [
      {"measurement": "Ki", "setting": "Carbonic anhydrase 9", "result": 4.1, "unit": "µM"}
    ]},
    {"smiles": "CC1(C)CC(=O)c2cnn(-c3ccc(S(=O)(=O)Nc4cccc(Cl)c4)cc3)c2C1", "values": [
      {"measurement": "Ki", "setting": "Carbonic anhydrase 2", "result": "> 100", "unit": "µM"},
      {"measurement": "Ki", "setting": "Carbonic anhydrase 1", "result": "> 100", "unit": "µM"},
      {"measurement": "Ki", "setting": "Carbonic anhydrase 9", "result": "> 100", "unit": "µM"}
    ]},
    {"smiles": "Cc1ccc(NS(=O)(=O)c2ccc(-n3ncc4c3CC(c3ccccc3)CC4=O)cc2)cc1", "note": "(centres undefined)", "values": [
      {"measurement": "Ki", "setting": "Carbonic anhydrase 9", "result": 46.7, "unit": "µM"}
    ]},
    {"smiles": "COc1cccc(NS(=O)(=O)c2ccc(-n3ncc4c3CC(C)(C)CC4=O)cc2)c1", "values": [
      {"measurement": "Ki", "setting": "Carbonic anhydrase 9", "result": "> 100", "unit": "µM"}
    ]},
    {"smiles": "O=C1CCCc2c1cnn2-c1ccc(S(=O)(=O)Nc2ccc([N+](=O)[O-])cc2)cc1", "values": [
      {"measurement": "Ki", "setting": "Carbonic anhydrase 9", "result": 83.7, "unit": "µM"}
    ]},
    {"smiles": "COc1ccc(NS(=O)(=O)c2ccc(-n3ncc4c3CCCC4=O)cc2)cc1", "values": [
      {"measurement": "Ki", "setting": "Carbonic anhydrase 9", "result": 56.5, "unit": "µM"}
    ]},
    {"smiles": "Cc1ccc(NS(=O)(=O)c2ccc(-n3ncc4c3CCCC4=O)cc2)cc1", "values": [
      {"measurement": "Ki", "setting": "Carbonic anhydrase 9", "result": 39.2, "unit": "µM"}
    ]},
    {"smiles": "Cc1cccc(NS(=O)(=O)c2ccc(-n3ncc4c3CC(c3ccccc3)CC4=O)cc2)c1", "note": "(centres undefined)", "values": [
      {"measurement": "Ki", "setting": "Carbonic anhydrase 4", "result": "> 100", "unit": "µM"},
      {"measurement": "Ki", "setting": "Carbonic anhydrase 9", "result": 61.5, "unit": "µM"}
    ]},
    {"smiles": "O=C1CC(c2ccccc2)Cc2c1cnn2-c1ccc(S(=O)(=O)Nc2ccc(Cl)cc2)cc1", "note": "(centres undefined)", "values": [
      {"measurement": "Ki", "setting": "Carbonic anhydrase 9", "result": 47, "unit": "µM"}
    ]},
    {"smiles": "CC1(C)CC(=O)c2cnn(-c3ccc(S(=O)(=O)Nc4ccc([N+](=O)[O-])cc4)cc3)c2C1", "values": [
      {"measurement": "Ki", "setting": "Carbonic anhydrase 1", "result": "> 100", "unit": "µM"},
      {"measurement": "Ki", "setting": "Carbonic anhydrase 9", "result": "> 100", "unit": "µM"}
    ]},
    {"smiles": "O=C1CC(c2ccccc2)Cc2c1cnn2-c1ccc(S(=O)(=O)Nc2cccc(Cl)c2)cc1", "note": "(centres undefined)", "values": [
      {"measurement": "Ki", "setting": "Carbonic anhydrase 9", "result": 41.8, "unit": "µM"}
    ]},
    {"smiles": "COc1cccc(NS(=O)(=O)c2ccc(-n3ncc4c3CC(c3ccccc3)CC4=O)cc2)c1", "note": "(centres undefined)", "values": [
      {"measurement": "Ki", "setting": "Carbonic anhydrase 9", "result": 57.3, "unit": "µM"}
    ]},
    {"smiles": "COc1ccc(NS(=O)(=O)c2ccc(-n3ncc4c3CC(C)(C)CC4=O)cc2)cc1", "values": [
      {"measurement": "Ki", "setting": "Carbonic anhydrase 9", "result": "> 100", "unit": "µM"}
    ]},
    {"smiles": "O=C1CCCc2c1cnn2-c1ccc(S(=O)(=O)Nc2cccc(Cl)c2)cc1", "values": [
      {"measurement": "Ki", "setting": "Carbonic anhydrase 9", "result": 37.1, "unit": "µM"}
    ]},
    {"smiles": "O=C1CCCc2c1cnn2-c1ccc(S(=O)(=O)Nc2ccccc2)cc1", "values": [
      {"measurement": "Ki", "setting": "Carbonic anhydrase 9", "result": 97.9, "unit": "µM"}
    ]},
    {"smiles": "O=C1CCCc2c1cnn2-c1ccc(S(=O)(=O)Nc2cccc([N+](=O)[O-])c2)cc1", "values": [
      {"measurement": "Ki", "setting": "Carbonic anhydrase 2", "result": "> 100", "unit": "µM"},
      {"measurement": "Ki", "setting": "Carbonic anhydrase 9", "result": "> 100", "unit": "µM"}
    ]},
    {"smiles": "COc1cccc(NS(=O)(=O)c2ccc(-n3ncc4c3CCCC4=O)cc2)c1", "values": [
      {"measurement": "Ki", "setting": "Carbonic anhydrase 2", "result": "> 100", "unit": "µM"},
      {"measurement": "Ki", "setting": "Carbonic anhydrase 4", "result": "> 100", "unit": "µM"},
      {"measurement": "Ki", "setting": "Carbonic anhydrase 9", "result": "> 100", "unit": "µM"}
    ]}
  ]
}
